Measurements from patent US12012413B2, “Methods of treating painful diabetic peripheral neuropathy” (Tenacia Biotechnology (Hong Kong) Co., Limited, priority 2019, dated 2024).
Converted amounts (≈) assume the structure as drawn. Read-outs that look alike come from different tables or passages of the source.

Experiments:
Type in all cases: physicochemical
[1] = Solubility and stability of saturated solutions in pH 2-8 buffers at 25° C. (HPLC); conditions: for solubility at 1 day / solubility at 4 days / solubility at 7 days: ca. 25° C., read-out: solubility in an aqueous solvent; for solubility at 1 day: after about 1 day; for solubility at 4 days: after about 4 days; for solubility at 7 days: after about 7 days
Protocol: Crystalline, monohydrate Form MH of (2S,3R)-3-hydroxy-2-((R)-5-isobutyryl-1-oxo-2,5-diazaspiro[3.4]octan-2-yl)butanamide was prepared as follows. Saturated solutions of 3-hydroxy-2-(5-isobutyryl-1-oxo-2,5-diazaspiro[3.4]octan-2-yl)butanamide were prepared in pH 2, pH 3, pH 5, pH 7, and pH 8 buffers and were stirred at 25° C. Aliquots were taken after 1 day, 4 days, and 7 days and centrifuged at 12,500 rpm for 15 minutes. The supernatant was analyzed for sample concentration by HPLC, and the residual solids were analyzed by XRPD after 1 day, 4 days, and 7 days.

[2] = Dynamic vapor sorption (DVS) profile
Source text: FIG. 4 depicts the dynamic sorption vapor (DVS) profile of crystalline, monohydrate Form MH of NYX-2925. […] This is a fully reversible process and the sample loses this water when decreasing the relative humidity with a negligible hysteresis. At low relative humidity there is the release and uptake of about 5.5 wt. % in the range of about 0% to about 15% relative humidity with about 10% relative humidity hysteresis. The monohydrate Form MH of NYX-2925 retains about 5.7 weight % water content, corresponding to the stoichiometric water content of the, monohydrate, over the range of about 10% to about 80% relative humidity with less than 0.5 wt. % change. There is minimal water uptake above 80% relative humidity and about 1 weight % gain in the 90% to 95% relative humidity range.

[3] = Approximate solubility by stepwise dilution in solvents and solvent mixtures; conditions: 22 °C, about 22° C., read-out: Solubility S
Protocol: Approximate solubilities were determined by a stepwise dilution of a suspension of about 10 mg of substance in 0.05 mL of solvent. If the substance was not dissolved by addition of a total of at least 10 ml solvent, the solubility was indicated as <1 mg/mL. For all experiments, analytical grade solvents were used.
The approximate solubility of crystalline, monohydrate Form MH of NYX-2925 across a range of solvents and solvent mixtures (expressed in volume ratios measured at about 22° C.) is provided in Table 8, below.

[4] = Stability of monohydrate drug substance and oral capsules on storage
Source text: NYX-2925 monohydrate drug product was formulated with the pharmaceutically acceptable excipients: microcrystalline cellulose, starch, and magnesium stearate.

[5] = Solid form conversion / physical stability (XRPD); conditions: ambient conditions of temperature and humidity; versus anhydrous Forms A, B, and C
Protocol: X-ray powder diffraction (XRPD) analysis was carried out on a Stoe Stadi P with Mythen1K detector; Cu-Kα1 radiation; 40 kV and 40 mA tube power; curved Ge monochromator; 0.02° 2θ step size, 12 s step time, 1.5-50.5° 2θ scanning range; detector mode: step scan; 1° 2θ detector step. The sample (about 20 mg) was placed between two acetate foils and clamped in a Stoe transmission sample holder. The sample holder was rotated during the measurement.
X-ray powder diffraction (XRPD) analysis was also carried out on a on a Bruker D8 Advance; Cu-Kα radiation; standard measurement conditions: Bragg-Brentano reflection geometry; 40 kV and 40 mA tube power; LynxEye detector; 0.02° 2θ step size, 37 s step time, 2.5-50.5° 2θ scanning range (about 10 min measurement time. The sample was spread on a silicon single crystal substrate without cavity and flattened to fit to the 0.1 mm depth of the sample holder.
Crystalline, anhydrous Form C material of 3-hydroxy-2-(5-isobutyryl-1-oxo-2,5-diazaspiro[3.4]octan-2-yl)butanamide is not stable in comparison to anhydrous Form A or anhydrous Form B under ambient conditions of temperature and humidity. […] In turn, anhydrous Form A and anhydrous Form B each convert to monohydrate Form MH under the conditions described above.

[6] = aqueous buffer, pH 2, aqueous buffer, thermodynamic from solid, pH of about 2
[7] = aqueous buffer, pH 3, aqueous buffer, thermodynamic from solid, pH of about 3
[8] = aqueous buffer, pH 5, aqueous buffer, thermodynamic from solid, pH of about 5
[9] = aqueous buffer, pH 7, aqueous buffer, thermodynamic from solid, pH of about 7
[10] = aqueous buffer, pH 8, aqueous buffer, thermodynamic from solid, pH of about 8

With `CC(C)C(=O)N1CCC[C@]12CN([C@H](C(N)=O)[C@@H](C)O)C2=O` [Form MH, (2S,3R)-3-hydroxy-2-((R)-5-isobutyryl-1-oxo-2,5-diazaspiro[3.4]octan-2-yl)butanamide] the solubility at 1 day [1, 6] was ~54.1 mg/mL (≈ 182 mM), the solubility at 4 days [1, 6] was ~53.5 mg/mL (≈ 180 mM) and the solubility at 7 days [1, 6] was ~53.5 mg/mL (≈ 180 mM). It also gave a solubility at 1 day [1, 7] of ~54.2 mg/mL (≈ 182 mM), a solubility at 4 days [1, 7] of ~53.2 mg/mL (≈ 179 mM) and a solubility at 7 days [1, 7] of ~52.4 mg/mL (≈ 176 mM). The solubility at 1 day [1, 8] was ~52.5 mg/mL (≈ 177 mM), the solubility at 4 days [1, 8] was ~53.2 mg/mL (≈ 179 mM) and the solubility at 7 days [1, 8] was ~52.4 mg/mL (≈ 176 mM). It also gave a solubility at 1 day [1, 9] of ~52.6 mg/mL (≈ 177 mM), a solubility at 4 days [1, 9] of ~53 mg/mL (≈ 178 mM) and a solubility at 7 days [1, 9] of ~52.3 mg/mL (≈ 176 mM). It also gave a solubility at 1 day [1, 10] of ~52.7 mg/mL (≈ 177 mM), a solubility at 4 days [1, 10] of ~51.6 mg/mL (≈ 174 mM) and a solubility at 7 days [1, 10] of ~52.6 mg/mL (≈ 177 mM). For the same molecule, the solubility thermodynamic at 7 days ([1]; pH 2, pH 3, pH 5, pH 7 and pH 8 buffers, aqueous buffer, thermodynamic from solid, pH ranges of 2-8, 25° C., after 7 days, read-out: saturated concentration in buffers) was ~50 mg/mL (≈ 168 mM), the “stability in saturated buffer solutions (HPLC analysis)” value ([1]; pH ranges of 2-8, 25° C., after 7 days) was “stable” and the DVS weight gain ([2]; 90% to 95% relative humidity range) was “about 1 weight %”. The “DVS release and uptake of water (reversible weight loss)” value ([2]; about 0% to about 15% relative humidity, about 10% RH hysteresis) was “about 5.5 wt. %”, the “DVS water content retained” value ([2]; about 10% to about 80% relative humidity) was “about 5.7 weight %” and the “DVS continuous reversible uptake of water” value ([2]; from about 50% to about 95% relative humidity, mainly above 90%) was “about 1.5 wt. %”. For the same molecule, the “DVS change in water content” value ([2]; over about 10% to about 80% relative humidity) was “less than 0.5 wt. %”, the solubility ([3]; 1,4-dioxane, organic solvent or mixture, thermodynamic from solid, 1,4-dioxane) was 28 to 31 mg/mL (≈ 94.2 to 104 mM) and the solubility ([3]; 1/1 dichloromethane/methanol (v/v), organic solvent or mixture, thermodynamic from solid, 1/1 dichloromethane/methanol (volume ratio)) was > 200 mg/mL. The solubility ([3]; 1/1 ethanol/water (v/v), aqueous with cosolvent or surfactant or cyclodextrin, thermodynamic from solid, 1/1 ethanol/water (volume ratio)) was 69 to 103 mg/mL, the solubility ([3]; 1/1 isopropanol/water (v/v), aqueous with cosolvent or surfactant or cyclodextrin, thermodynamic from solid, 1/1 isopropanol/water (volume ratio)) was 71 to 107 mg/mL and the solubility ([3]; 1/1 methanol/water (v/v), aqueous with cosolvent or surfactant or cyclodextrin, thermodynamic from solid, 1/1 methanol/water (volume ratio)) was > 200 mg/mL. The solubility ([3]; 10/1 ethyl acetate/ethanol (v/v), organic solvent or mixture, thermodynamic from solid, 10/1 ethyl acetate/ethanol (volume ratio)) was 32 to 39 mg/mL, the solubility ([3]; 10/1 isopropanol/water (v/v), organic solvent or mixture, thermodynamic from solid, 10/1 isopropanol/water (volume ratio)) was 36 to 41 mg/mL and the solubility ([3]; acetone, organic solvent or mixture, thermodynamic from solid, acetone) was 57 to 76 mg/mL (≈ 192 to 256 mM). The solubility ([3]; acetonitrile, organic solvent or mixture, thermodynamic from solid, acetonitrile) was 118 to 230 mg/mL (≈ 397 to 773 mM), the solubility ([3]; aniline, organic solvent or mixture, thermodynamic from solid, aniline) was > 200 mg/mL and the solubility ([3]; anisole, organic solvent or mixture, thermodynamic from solid, anisole) was ~3 mg/mL (≈ 10.1 mM). For the same molecule, the solubility ([3]; cyclohexane, organic solvent or mixture, thermodynamic from solid, cyclohexane) was ~1 mg/mL (≈ 3.36 mM), the solubility ([3]; dichloromethane, organic solvent or mixture, thermodynamic from solid, dichloromethane) was 55 to 73 mg/mL (≈ 185 to 245 mM) and the solubility ([3]; diisopropyl ether, organic solvent or mixture, thermodynamic from solid, diisopropyl ether) was < 1 mg/mL. The solubility ([3]; dimethyl sulfoxide, organic solvent or mixture, thermodynamic from solid, dimethyl sulfoxide) was > 200 mg/mL, the solubility ([3]; dimethylformamide, organic solvent or mixture, thermodynamic from solid, dimethylformamide) was > 200 mg/mL and the solubility ([3]; ethanol, organic solvent or mixture, thermodynamic from solid, ethanol) was > 200 mg/mL. For the same molecule, the solubility ([3]; ethyl acetate saturated with water, organic solvent or mixture, thermodynamic from solid, ethyl acetate saturated with water) was 6 to 8 mg/mL (≈ 20.2 to 26.9 mM), the solubility ([3]; ethyl acetate, organic solvent or mixture, thermodynamic from solid, ethyl acetate) was 13 to 15 mg/mL (≈ 43.7 to 50.4 mM) and the solubility ([3]; heptane, organic solvent or mixture, thermodynamic from solid, heptane) was < 1 mg/mL. The solubility ([3]; isopropanol, organic solvent or mixture, thermodynamic from solid, isopropanol) was 45 to 60 mg/mL (≈ 151 to 202 mM), the solubility ([3]; isopropyl acetate, organic solvent or mixture, thermodynamic from solid, isopropyl acetate) was 5 to 6 mg/mL (≈ 16.8 to 20.2 mM) and the solubility ([3]; methanol, organic solvent or mixture, thermodynamic from solid, methanol) was > 200 mg/mL. For the same molecule, the solubility ([3]; methyl ethyl ketone, organic solvent or mixture, thermodynamic from solid, methyl ethyl ketone) was 32 to 38 mg/mL (≈ 108 to 128 mM), the solubility ([3]; tert-butyl methyl ether saturated with water, organic solvent or mixture, thermodynamic from solid, tert-butyl methyl ether saturated with water) was < 1 mg/mL and the solubility ([3]; tert-butyl methyl ether, organic solvent or mixture, thermodynamic from solid, tert-butyl methyl ether) was < 1 mg/mL. For the same molecule, the solubility ([3]; tetrahydrofuran, organic solvent or mixture, thermodynamic from solid, tetrahydrofuran) was 31 to 36 mg/mL (≈ 104 to 121 mM), the solubility ([3]; toluene, organic solvent or mixture, thermodynamic from solid, toluene) was < 1 mg/mL and the solubility ([3]; triethylamine, organic solvent or mixture, thermodynamic from solid, triethylamine) was < 1 mg/mL. For the same molecule, the solubility ([3]; water, water, thermodynamic from solid, water) was 26 to 30 mg/mL (≈ 87.4 to 101 mM), the “changes in impurity profile or other quality attributes (appearance, assay, water content, microbial examination, XRPD)” value ([4]; 6 months at 40° C./75% relative humidity) was “no significant changes” and the “changes in impurity profile or other quality attributes (appearance, assay, water content, microbial examination, XRPD)” value ([4]; 12 months at 25° C./60% relative humidity) was “no significant changes”. The “relative stability of crystalline forms” value [5] was “more stable”.
